Experiments:
[1] = system: H. vulgare root epidermal cells; experiment: LCO-induced nuclear calcium oscillations after strigolactone, karrikin and/or CEP pre-treatment; assay type: cell-based, Hordeum vulgare; details: then 10^−7 M SmLCO
Experimental: (§1) FIGS. 11A-11B provide the effects of strigolactone or karrikin treatment on M. truncatula (FIG. 11A) and H. vulgare (FIG. 11B) root epidermal cell nuclear calcium oscillations. FIG. 11A provides traces of nuclear calcium oscillations produced by M. truncatula root epidermal cells. Cells were grown under high phosphate and limiting nitrate levels (3.75 mM PO4^− and 0 mM NO3^−). The top trace represents control cells that were pretreated with buffer alone; the second trace represents cells that were pretreated with 1 μM of strigolactone 5-deoxystrigol for 12 hours; and the third trace represents cells that were pretreated with a 1 μM mixture of karrikin 1 and karrikin 2 (KARs) for 12 hours. All cells were secondarily treated with 10^−8 M NS-LCO. The scale bar indicates a span of 10 minutes, and the fractions indicate the number of cells that responded over the total number of cells analyzed.
FIGS. 14A-14D provide the effects of treating H. vulgare plants with a strigolactone or with both a strigolactone and a CEP peptide. […] The scale bar indicates a span of 10 minutes, and the fractions indicate the number of cells that responded over the total number of cells analyzed. FIGS. 14B-14C provide the level of mycorrhizal colonization of H. vulgare when treated with the synthetic strigolactone analog GR24 under different nutrient conditions, as determined in two separate experiments. […]

[2] = system: M. truncatula root epidermal cells; experiment: LCO-induced nuclear calcium oscillations after strigolactone or karrikin pre-treatment; assay type: cell-based, Medicago truncatula; details: 3.75 mM PO4− and 0 mM NO3−; 1 μM pre-treatment for 12 hours, then LCO
Experimental: as §1
In FIGS. 11A-11B, M. truncatula (FIG. 11A) and H. vulgare (FIG. 11B) plants were grown on media containing high phosphate and limiting nitrate (3.75 mM PO4^− and 0 mM NO3^− for M. truncatula; 0 mM NO3^− and 0.5 mM PO4^− for H. vulgare). H. vulgare pants tested in FIG. 14A were grown on BNM media containing high nitrate and high phosphate (5 mM NO3^− and 0.5 mM PO4^−). […]

[3] = system: H. vulgare LysM receptor-like kinase homologs; experiment: LysM receptor-like kinase gene expression by RT-qPCR after strigolactone or karrikin treatment; assay type: in vivo, Hordeum vulgare; details: −N+P plates for 4 days, then 0.1 μM for 24 hours; relative to DMSO mock
Excerpt: FIG. 13 provides the relative expression levels of H. vulgare genes, including LysM receptor-like kinase homologs, in response to treatment with strigolactone or karrikin signaling molecules, as determined by qPCR. The H. vulgare gene is indicated on the x-axis including, from left to right, HvSTH7b (a homolog of Arabidopsis STH7, a karrikin-responsive gene (Nelson et al., 2010, PNAS)), HvRLK2, HvRLK3, HvRLK7, HvRLK9, and HvRLK10. Relative expression levels are shown on the y-axis. Values shown are the mean of three samples±SD. ** indicates P<0.01, and * indicates 0.01<P<0.05, as determined by a Student's t-test. […]
Wild type H. vulgare plants tested in FIG. 13 were grown on BNM plates for four days, and the plate roots were then treated with either 0.1 μM 5′-deoxystrigol (Chiralix), a mixture of 0.1 μM Karrikin 1 or 0.1 μM Karrikin 2 (Chiralix), or 0.1 μM GR24 (Chiralix) in liquid BNM for 24 hours. […] Real-time quantitative PCR (RT-qPCR) was performed using SensiFAST SYBR No-ROX Kit. An H. vulgare ADP gene was used as a reference gene, and fold changes were calculated for 5′-deoxystrigol-, karrikins- or GR24-treated roots with respect to DMSO-treated roots (mock treatment). […]

expression of LysM receptor-like kinase genes, including RLK10 [3]: induced
Substance: 5-deoxystrigol [strigolactone]
symbiotic calcium oscillations under replete phosphate after pre-treatment ([1]; 0 mM NO3− and 0.5 mM PO4−, 1 μM pre-treatment for 12 hrs): overrode phosphate suppression of symbiotic calcium oscillations
LCO induction of calcium oscillations under high nitrate after pre-treatment ([1]; 5 mM NO3− and 0.5 mM PO4−, 1 μM SL): only limited LCO induction of calcium oscillations
symbiotic calcium oscillations under replete phosphate after pre-treatment [2]: overrode phosphate suppression of symbiotic calcium oscillations

Reference: patent publication US12503707B2, “Methods, plants and compositions for overcoming nutrient suppression of mycorrhizal symbiosis” (Cambridge Enterprise Limited, priority 2020, dated 2025)
